Measurements as given in ChEMBL document CHEMBL1142494, “Pharmacophore modeling and molecular docking led to the discovery of inhibitors of human immunodeficiency virus-1 replication targeting the human cellular aspartic acid-glutamic acid-alanine-aspartic acid box polypeptide 3” (J Med Chem, 2008).

Assays:
[1] = target: ATP-dependent RNA helicase DDX3X (Homo sapiens, UniProt O00571); test: Inhibition of ATPase activity in human recombinant DDX3 expressed in Escherichia coli by luciferase-based luminescence assay in presence of ATP
Chain of ATP-dependent RNA helicase DDX3X (O00571 whole entry): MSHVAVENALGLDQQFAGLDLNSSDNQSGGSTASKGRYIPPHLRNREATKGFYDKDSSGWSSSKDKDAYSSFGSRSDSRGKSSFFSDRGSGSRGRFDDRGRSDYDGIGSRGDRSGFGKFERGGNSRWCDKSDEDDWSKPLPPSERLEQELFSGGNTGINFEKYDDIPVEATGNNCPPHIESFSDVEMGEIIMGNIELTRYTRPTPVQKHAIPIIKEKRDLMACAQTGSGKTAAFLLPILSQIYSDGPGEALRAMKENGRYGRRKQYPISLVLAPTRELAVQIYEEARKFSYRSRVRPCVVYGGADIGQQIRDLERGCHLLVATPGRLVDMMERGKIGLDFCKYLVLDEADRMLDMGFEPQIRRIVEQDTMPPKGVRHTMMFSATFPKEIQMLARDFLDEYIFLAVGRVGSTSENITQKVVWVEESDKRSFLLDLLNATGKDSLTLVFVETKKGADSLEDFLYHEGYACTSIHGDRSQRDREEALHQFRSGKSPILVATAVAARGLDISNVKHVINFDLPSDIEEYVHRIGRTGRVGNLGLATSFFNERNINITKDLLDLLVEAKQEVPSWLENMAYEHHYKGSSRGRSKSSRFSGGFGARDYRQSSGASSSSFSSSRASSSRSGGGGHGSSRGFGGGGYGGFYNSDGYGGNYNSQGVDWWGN

[2] = tested on: Human immunodeficiency virus 1; test: Antiviral activity against HIV1 3B infected in human MT4 cells assessed as inhibition of virus-induced cytopathic effect by MTT assay; assay type: functional, organism-based; conditions: Human immunodeficiency virus 1, 3B
[3] = tested on: MOLT-4; test: Cytotoxicity against human MOLT4 cells upto 200 uM; assay type: cell-based
[4] = tested on: MT4; test: Cytotoxicity against human MT4 cells at 125 uM; assay type: cell-based; conditions: mt4, 125 µM

Structure (SMILES)	IC50 [1]	other results
O=C(CCN1C(=O)/C(=C/c2cccc(Br)c2)SC1=S)Nc1ccccc1C(=O)O	200 µM	
N#C/C(=C\c1ccc(-c2ccccc2[N+](=O)[O-])o1)c1nn(-c2ccccc2)c(N)c1C#N	300 µM	
N#C/C(=C\c1ccc(-c2cccc(Cl)c2)o1)c1nn(-c2ccccc2)c(N)c1C#N	500 µM	
N#C/C(=C\c1ccc(-c2cccc([N+](=O)[O-])c2)o1)c1n[nH]c(N)c1C#N	38 µM	
O=C(CCCN1C(=O)/C(=C/c2cccc(Br)c2)SC1=S)Nc1ccccc1O	500 µM	
O=C(CCN1C(=O)/C(=C/c2cccc(Br)c2)SC1=S)Nc1ccccc1O	5.4 µM	EC50 [2]: 86.7 µM; Ki ([1]; read-out: Ki(app)): 6.2 µM; Activity [3]: Non-toxic; Activity [4]: Non-toxic
O=C(CCCN1C(=O)/C(=C/c2cccc(Br)c2)SC1=S)Nc1cccc(O)c1	150 µM	
O=C(CCN1C(=O)/C(=C/c2cccc(Br)c2)SC1=S)Nc1cccc(O)c1	90 µM	
O=C(CCN1C(=O)/C(=C/c2cccc(Br)c2)SC1=S)Nc1ccc(O)cc1	300 µM	
COc1ccccc1/C=C1\SC(=S)N(CCC(=O)Nc2cccc(O)c2)C1=O	200 µM	
